We go through 6 compounds from US12551523B2, “HIF-1 activator” (NUTRITION ACT CO., LTD., priority 2021, dated 2026).

For the first assay, the system named is K562 cells. The experiment in a line: GYPA gene expression in K562 cells (quantitative real-time PCR). It is filed as cell-based, human. Particulars: olive leaf components alone or in combination. As for the experimental part:
K562 cells (Riken Cell Bank) were seeded in a 6-well plate using RPMI 1640 Medium (Gibco Waltham, MA, USA) containing 10% FBS and 1% penicillin/streptomycin solution added to a cell concentration of 2×10^4 cell/ml, and the cells were cultured in 5% CO2 at 37° C., 95% humidification. On the following day, the medium was replaced with a mixed solution of oleuropein (OP) and oleuroside (OS), and reaction was conducted for 6 days. The mixing proportions were as follows: (a) combinations of 35.36 μM OP and different concentrations of OS (1.18, 3.54, 5.23, 7.10, 17.68, 23.57, 35.36 and 43.85 μM), and (b) combinations of 5.23 μM OS and different concentrations of OP (0.52, 2.62, 5.23, 10.46, 20.92, 35.36, 41.84 and 52.30 μM). The medium was replaced every 3 days.
After 6 days of reaction, the medium was removed from the cells, Isogen (Nippon Gene Co., Ltd.) was added for sonication, and the total RNA was extracted according to the manufacturer's protocol. The RNA concentration was measured using a NanoDrop 2000 spectrometer (Thermo Scientific, USA). For cDNA synthesis, 4 μl of SuperScript IV VILO Master Mix (Invitrogen) and 16 μl of total RNA solution (final RNA concentration: 10 ng/20 μl) were mixed in a PCR tube, and a MiniAmp Plus thermal cycler (Applied Biosystems) was used for reverse transcription. The thermal cycle was 10 minutes at 25° C., 10 minutes at 50° C., 5 minutes at 85° C. and 1 minute at 4° C. Quantitative real-time PCR was carried out for gene expression analysis. The Taqman primer and probe set used for the target gene expression analysis was the following: GYPA (Hs011068079_s1). ACTB (Hs03023880 g1 was used as the endogenous standard. For Taqman real-time PCR amplification reaction and gene expression level quantitation, 10 μL of TaqMan Gene Expression Master Mix (Applied Biosystems), 1 μL of each primer and probe set and 9 μL of cDNA (final cDNA concentration: […]) were mixed, and an AB 7500 Fast Real-Time PCR system (Applied Biosystems) was used. The thermal cycle was 2 minutes at 50° C., 10 minutes at 95° C., 15 seconds at 95° C. (50 cycles) and 1 minute at 60° C. The gene expression levels were calculated by the ΔΔCt method.
Two types of olive leaf extract with different content ratios of oleuropein and oleuroside were used to treat K562 cells, and the GYPA gene expression levels were measured by real-time PCR, as an erythroid differentiation marker. The test substances used were olive leaf extract A: 120 μg/mL (1.89 μg oleuroside: 15.44 μg oleuropein) (“extract A”, corresponding to the invention), and olive leaf extract B: 120 μg/mL (1.56 μg oleuroside: 40.26 μg oleuropein) (“extract B”).
The hydroxytyrosol, oleuropein, oleuroside, apigenin, apigenin-7-glucoside, apigenin-7-O-rutinoside, luteolin and luteolin-7-O-glucoside present in olive leaves were used either alone or in combination to measure the GYPA gene expression effect by the same method as for the synergistic effect with OP/OS at 10:1 to 1:10 using GYPA as the marker. GYPA gene expression increased only with the combination of oleuroside and oleuropein.
In general terms: In qPCR the cycle at which signal appears reflects the starting amount.
Consider `O=c1cc(-c2ccc(O)cc2)oc2cc(O[C@@H]3O[C@H](CO)[C@@H](O)[C@H](O)[C@H]3O)cc(O)c12` [A7G, Apigenin-7-O-glucoside], for which the GYPA expression increase result is “No”. Still for that read-out and setting: the same measure for `C[C@@H]1O[C@@H](OC[C@H]2O[C@@H](Oc3cc(O)c4c(=O)cc(-c5ccc(O)cc5)oc4c3)[C@H](O)[C@@H](O)[C@@H]2O)[C@H](O)[C@H](O)[C@H]1O` [A7R, Apigenin-7-O-rutinoside]: “No”; for `O=c1cc(-c2ccc(O)cc2)oc2cc(O)cc(O)c12` [A, Apigenin]: “No”. On the same count and under the same terms, the same measure for `O=c1cc(-c2ccc(O)c(O)c2)oc2cc(O[C@@H]3O[C@H](CO)[C@@H](O)[C@H](O)[C@H]3O)cc(O)c12` [L7G, Luteolin-7-O-glucoside]: “No”. Same read-out and setting: the same measure for `O=c1cc(-c2ccc(O)c(O)c2)oc2cc(O)cc(O)c12` [L, Luteolin]: “No”; for `C/C=C1/[C@H](O[C@@H]2O[C@H](CO)[C@@H](O)[C@H](O)[C@H]2O)OC=C(C(=O)OC)[C@H]1CC(=O)OCCc1ccc(O)c(O)c1` [OP, Oleuropein]: “No”.

The same assay, now with this note: olive leaf components alone or in combination, listed as oleuropein.
Take `C/C=C1/[C@H](O[C@@H]2O[C@H](CO)[C@@H](O)[C@H](O)[C@H]2O)OC=C(C(=O)OC)[C@H]1CC(=O)OCCc1ccc(O)c(O)c1` [OP, Oleuropein]: the GYPA expression increase entry is “No effect”.
